Legend:
FLT3 D835V = molecular target: T1, FLT3 D835V (Homo sapiens, UniProt P36888, D835V); experiment: DiscoverX KINOMEscan competition binding, FLT3 D835V; conditions: no ATP
T1 construct: purchased DiscoverX (KINOMEscan); host or cells: E. coli (T7 phage) or HEK-293
T1 sequence (P36888 27-993 D835V): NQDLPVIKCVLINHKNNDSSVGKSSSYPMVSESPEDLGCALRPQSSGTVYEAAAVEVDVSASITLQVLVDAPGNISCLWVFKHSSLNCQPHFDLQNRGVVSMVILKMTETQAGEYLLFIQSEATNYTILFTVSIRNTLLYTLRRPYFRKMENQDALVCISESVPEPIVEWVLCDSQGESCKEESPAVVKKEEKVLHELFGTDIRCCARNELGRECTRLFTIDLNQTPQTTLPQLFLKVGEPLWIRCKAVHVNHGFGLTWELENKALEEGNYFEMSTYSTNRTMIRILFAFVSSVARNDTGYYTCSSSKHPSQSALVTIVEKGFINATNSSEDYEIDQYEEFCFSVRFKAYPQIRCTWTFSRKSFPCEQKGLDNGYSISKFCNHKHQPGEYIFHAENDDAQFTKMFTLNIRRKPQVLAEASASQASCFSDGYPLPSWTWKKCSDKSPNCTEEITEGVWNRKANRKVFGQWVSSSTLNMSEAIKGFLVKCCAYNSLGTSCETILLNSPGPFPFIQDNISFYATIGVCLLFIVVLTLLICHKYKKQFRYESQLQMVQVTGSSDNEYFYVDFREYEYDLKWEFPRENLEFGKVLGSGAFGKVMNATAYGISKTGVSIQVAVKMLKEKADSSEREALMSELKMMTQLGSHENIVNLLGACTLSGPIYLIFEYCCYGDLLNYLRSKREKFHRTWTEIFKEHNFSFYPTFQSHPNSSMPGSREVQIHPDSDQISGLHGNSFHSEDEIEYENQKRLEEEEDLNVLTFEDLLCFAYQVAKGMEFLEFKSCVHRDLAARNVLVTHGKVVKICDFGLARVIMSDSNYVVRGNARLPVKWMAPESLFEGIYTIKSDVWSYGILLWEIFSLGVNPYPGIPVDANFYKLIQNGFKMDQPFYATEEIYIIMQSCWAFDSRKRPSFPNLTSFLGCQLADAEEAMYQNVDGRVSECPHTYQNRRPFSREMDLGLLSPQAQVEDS
Source text: (§1) Kinase binding data were obtained for various exemplary compounds prepared according to Examples 2-15 using the DiscoverX KINOMEscan® active site-directed competition binding site-directed assay protocol described below. […] As a result, the data report thermodynamic interaction affinities (Kd values), rather than IC50 values that are dependent on ATP concentrations. The assay uses a DNA-tagged version of the protein kinase, and an immobilized ligand bound to a solid support. Compounds that directly or indirectly prevent kinase binding to the immobilized ligand reduce the amount of kinase captured on the solid support, which is detected using an ultra-sensitive qPCR method. Affinity constants reported from the assay have been reported to be independent of the immobilized ligand used that is coupled to the solid support (See supplemental information in Fabian, M. A. et. al., (2005) Nat. […] Wodicka, L. […] Biol. 17, 1241-1249.) Kinase-tagged T7 phage strains were prepared in an E. coli host derived from the BL21 strain. E. coli were grown to log-phase and infected with T7 phage and incubated with shaking at 32° C. until lysis. […] Kds were determined using an 11-point 3-fold compound dilution series with three DMSO control points. […] The kinase concentration in the eluates was measured by qPCR. Binding constants (Kds) were calculated with a standard dose-response curve using the Hill equation. […]

IRAK4 = molecular target: T2, IRAK4 (Homo sapiens, UniProt Q9NWZ3); experiment: DiscoverX KINOMEscan competition binding, IRAK4; design: purchased RBC (Reaction Biology) HotSpot assay; conditions: no ATP
T2 sequence (Q9NWZ3 1-460): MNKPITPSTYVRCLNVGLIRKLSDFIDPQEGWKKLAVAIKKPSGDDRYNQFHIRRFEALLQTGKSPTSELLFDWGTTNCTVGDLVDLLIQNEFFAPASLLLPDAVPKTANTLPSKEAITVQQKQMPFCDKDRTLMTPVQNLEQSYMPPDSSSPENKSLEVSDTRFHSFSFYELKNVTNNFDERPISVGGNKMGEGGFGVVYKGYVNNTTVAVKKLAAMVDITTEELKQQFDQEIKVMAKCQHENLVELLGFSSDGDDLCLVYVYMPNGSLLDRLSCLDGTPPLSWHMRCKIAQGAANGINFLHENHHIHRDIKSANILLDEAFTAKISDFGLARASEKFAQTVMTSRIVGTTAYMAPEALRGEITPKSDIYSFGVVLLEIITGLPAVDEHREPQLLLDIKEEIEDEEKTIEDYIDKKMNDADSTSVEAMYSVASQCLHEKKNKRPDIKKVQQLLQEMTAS
Source text: as §1

## COc1cc2ncc(-c3nc(N[C@H]4CNCC[C@@H]4F)c(F)cc3F)n2nc1C1CCC1 [Compound 15a, 6-(6-cyclobutyl-7-methoxyimidazo[1,2-b]pyridazin-3-yl)-3,5-difluoro-N-((3S,4S)-4-fluoropiperidin-3-yl)pyridin-2-amine]
FLT3 D835V
  Kd: < 170 pM
IRAK4
  Kd: 320 pM

— patent US20250368648A1, “MULTI-CYCLIC IRAK AND FLT3 INHIBITING COMPOUNDS AND USES THEREOF” (CHILDREN'S HOSPITAL MEDICAL CENTER, priority 2022, published 2025)
